Literature values as cited in patent US7390502B2, “SN-38 lipid complexes and their methods of use” (NeoPharm, Inc., priority 2000, dated 2008).

Columns and labels:
[1] = test system: topoisomerase I purified from human and rodent tumor cell lines; settings: versus irinotecan; enzyme purified from human and rodent tumor cell lines
[2] = versus irinotecan
[3] = aqueous solutions / water
[4] = tends to precipitate into aqueous phase

SMILES: CCc1c2c(nc3ccc(O)cc13)-c1cc3c(c(=O)n1C2)COC(=O)[C@]3(O)CC [SN-38, 7-ethyl-10-hydroxycamptothecin]
- potency relative to irinotecan as an inhibitor of topoisomerase I [1]: approximately 1000 times
- potency relative to irinotecan in in vitro cytotoxicity assays [2]: up to 2,000 fold
- solubility in aqueous solutions [3]: exceedingly insoluble
- affinity for lipid membranes [4]: low affinity
